pKi: −log10 of the molar value.
What follows are compounds tested against human GCGR (Homo sapiens (Human), UniProt P47871) (assay: Cellular functional assay, cAMP readout: glucagon stimulated cAMP in HEK293 cells expressing human GCGR (LANCE TR-FRET)).
Assay type: cell-based
Description: IC50 Values in Cellular Functional Assays: cAMP Readout
Full-length human GCGR (Accession Number: NM000160) subcloned into pcDNA3.1 was stably transfected into HEK293 cells (hGluc-1 HEK) and maintained under G418 selection (500 μg/mL). Cell cultures were maintained in DMEM/F12 media supplemented with 10% FBS and 1% GlutaMax. Glucagon stimulated cAMP was quantified using LANCE technology as per manufacturer instructions. On the day of the experiment, spent media was removed and cells were washed with Hank's Buffered Saline solution (HBSS) and cells were harvested with non-enzymatic cell dissociation solution, then washed once with HBSS. Cells were re-suspended in stimulation buffer at a concentration of 0.83×10^6 cells/ml and cAMP detection antibody was added. 6 μl/well of this solution was then dispensed in a 384 well plate (cell density 5000 cells/well). Test compound was serially diluted in DMSO and 50 nl were dispensed on top of the cell solution and allowed to incubate for 30 minutes. 6 μl of a 2× glucagon solution (final concentration in assay 100 pM) was then added and the reaction was terminated after 5 minutes with the addition of detection mix. The resulting mixture was incubated, protected from light for 1.5 h. cAMP levels were quantified by TR-FRET in an EnVision instrument against a known standard. IC50's were generated by using a non-linear regression macro driven in Excel and converted to Ki values.

human GCGR, sequence (P47871 26-477): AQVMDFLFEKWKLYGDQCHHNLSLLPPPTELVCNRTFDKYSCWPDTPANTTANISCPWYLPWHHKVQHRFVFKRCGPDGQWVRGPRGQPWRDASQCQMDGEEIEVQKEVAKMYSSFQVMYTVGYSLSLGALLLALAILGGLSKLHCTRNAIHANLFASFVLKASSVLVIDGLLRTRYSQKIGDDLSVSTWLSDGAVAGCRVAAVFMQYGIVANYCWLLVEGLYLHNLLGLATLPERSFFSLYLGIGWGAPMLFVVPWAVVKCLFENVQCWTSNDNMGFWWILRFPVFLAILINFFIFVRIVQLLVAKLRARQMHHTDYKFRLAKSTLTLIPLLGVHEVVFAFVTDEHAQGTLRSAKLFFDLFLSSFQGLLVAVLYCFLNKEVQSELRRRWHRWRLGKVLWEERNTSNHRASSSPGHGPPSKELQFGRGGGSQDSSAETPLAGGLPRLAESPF

Row | pKi | SMILES
1 | 7.15 | Cc1cc(C(F)(F)F)ccc1-c1ccc(NCc2ccc(C(F)(F)F)cc2-c2ccc(C(=O)NCCC(=O)O)cc2C)cc1Cl [Compound 6, 3-(2′-(((2-chloro-2′-methyl-4′-(trifluoromethyl)-[1,1′-biphenyl]-4-yl)amino)methyl)-2-methyl-5′-(trifluoromethyl)-[1,1′-biphenyl]-4-ylcarboxamido)propanoic acid]
2 | 7.33 | COc1cc(C(F)(F)F)cc(-c2ccc(C(=O)NCCC(=O)O)cc2)c1CNc1ccc(-c2ccc(C(F)(F)F)cc2Cl)cc1 [Compound 16, 3-(2′-(((2′-chloro-4′-(trifluoromethyl)-[1,1′-biphenyl]-4-yl)amino)methyl)-3′-methoxy-5′-(trifluoromethyl)-[1,1′-biphenyl]-4-ylcarboxamido)propanoic acid]
3 | 7.05 | Cc1cc(Cl)ccc1-c1ccc(NCc2ccc(C(F)(F)F)cc2-c2ccc(C(=O)NCCC(=O)O)cc2C)cc1Cl [Compound 5, 3-(2′-(((2,4′-dichloro-2′-methyl-[1,1′-biphenyl]-4-yl)amino)methyl)-2-methyl-5′-(trifluoromethyl)-[1,1′-biphenyl]-4-ylcarboxamido)propanoic acid]
4 | 6.82 | O=C(O)CCNC(=O)c1ccc(-c2cc(C(F)(F)F)ccc2CNc2ccc(-c3ccc(Cl)cc3Cl)cc2)cc1 [Compound 4, 3-(2′-(((2′,4′-dichloro-[1,1′-biphenyl]-4-yl)amino)methyl)-5′-(trifluoromethyl)-[1,1′-biphenyl]-4-ylcarboxamido)propanoic acid]
5 | 7.24 | COc1cc(C(F)(F)F)cc(-c2ccc(C(=O)NCCC(=O)O)cc2)c1CNc1ccc(-c2ccc(Cl)cc2)c(Cl)c1 [Compound 15, 3-(2′-(((2,4′-dichloro-[1,1′-biphenyl]-4-yl)amino)methyl)-3′-methoxy-5′-(trifluoromethyl)-[1,1′-biphenyl]-4-ylcarboxamido)propanoic acid]
6 | 7.24 | Cc1cc(Cl)ccc1-c1ccc(NCc2ccc(C(F)(F)F)cc2-c2ccc(C(=O)NCCC(=O)O)cc2)cc1Cl [Compound 1, 3-(2′-(((2,4′-dichloro-2′-methyl-[1,1′-biphenyl]-4-yl)amino)methyl)-5′-(trifluoromethyl)-[1,1′-biphenyl]-4-ylcarboxamido)propanoic acid]
7 | 7.38 | Cc1cc(C(F)(F)F)ccc1-c1ccc(NCc2ccc(C(F)(F)F)cc2-c2ccc(C(=O)NCCC(=O)O)cc2)cc1Cl [Compound 2, 3-(2′-(((2-chloro-2′-methyl-4′-(trifluoromethyl)-[1,1′-biphenyl]-4-yl)amino)methyl)-5′-(trifluoromethyl)-[1,1′-biphenyl]-4-ylcarboxamido)propanoic acid]
8 | 7.17 | O=C(O)CCNC(=O)c1ccc(-c2cc(C(F)(F)F)ccc2CNc2ccc(-c3ccc(C(F)(F)F)cc3Cl)c(Cl)c2)cc1 [Compound 3, 3-(2′-(((2,2′-dichloro-4′-(trifluoromethyl)-[1,1′-biphenyl]-4-yl)amino)methyl)-5′-(trifluoromethyl)-[1,1′-biphenyl]-4-ylcarboxamido)propanoic acid]
9 | 7.52 | Cc1cc(C(F)(F)F)ccc1-c1ccc(NCc2c(-c3ccc(C(=O)NCCC(=O)O)cc3)cc(C(F)(F)F)cc2C(C)C)cc1Cl [Compound 17, 3-(2′-(((2-chloro-2′-methyl-4′-(trifluoromethyl)-[1,1′-biphenyl]-4-yl)amino)methyl)-3′-isopropyl-5′-(trifluoromethyl)-[1,1′-biphenyl]-4-ylcarboxamido)propanoic acid]
